Values quoted from earlier work, collected in patent US9320746B2, “Method for treating intestinal fibrosis” (Sigmoid Pharma Limited, priority 2013, dated 2016).

Details: extensive first-pass elimination; compared with other corticosteroid formulations

systemic bioavailability: 10-15%
Structure (SMILES): CCCC1O[C@@H]2C[C@H]3[C@@H]4CCC5=CC(=O)C=C[C@]5(C)[C@H]4[C@@H](O)C[C@]3(C)[C@]2(C(=O)CO)O1 (stereo partly drawn) [budesonide, 16,17-butylidendioxy-11β,21-dihydroxy-1,4-pregnadien-3,20-dione]
